Experiment [1] relates to 3D HepaRG/HSC co-culture. Nature of the experiment: APAP toxicity assay, cell viability by ATP (Cell titer Glo). In kind it is cell-based, human. As to conditions: Homo sapiens, 3D HepaRG/HSC, current study, 0% DMSO, read-out: APAP EC50 values (±stdev). As for the experimental part: APAP toxicity assay was performed in 3D HepaRG/co-culture as well as in 3D HepaRG monoculture. […] For some experiments the culture medium was supplemented with 2.5 mM valproic acid (VPA sodium salt, Sigma-Aldrich) or with cytokine mixture (Raicevic et al.,2012)-interleukin (IL)-1β 25 ng/mL (Peprotech, Rocky Hill, N.J., USA), interferon (IFN)-γ 10^3 U/mL, tumor necrosis factor (TNF)-a 50 ng/mL, and IFN-α 3·10^3 U/mL (all from Prospec, Inc., East Brunswick, N.J., USA). For the recovery assay, at the end of APAP incubation, cells were washed using HepaRG culture 0% DMSO medium and kept in the same medium for 3 more days.
(§1) At the end of the incubation period, 5 spheroids per condition were pooled and lysed for RNA analyses, while the remaining spheroids per condition were lysed individually for viability analysis using the Cell titer Glo kit (Promega) for ATP measurements following the instructions of the manufacturer.
On the technique in general: ATP-based viability assays read luminescence as a measure of living cells.

Experiment [2] deals with 3D HepaRG mono-culture. The experiment can be described thus: mRNA expression of HSC activation markers (qPCR) after APAP incubation. Format: cell-based, human. As to conditions: 20 mM APAP, 24h, Assays 1-3. As for the experimental part:
(§2) APAP toxicity assay was performed in 3D HepaRG/co-culture as well as in 3D HepaRG monoculture. For 24 h, starting at day 20, cells were exposed to a range of APAP concentrations between 0.5 and 80 mM, keeping cells with the solvent (0.1% DMSO) as a control. For some experiments the culture medium was supplemented with 2.5 mM valproic acid (VPA sodium salt, Sigma-Aldrich) or with cytokine mixture (Raicevic et al.,2012)-interleukin (IL)-1β 25 ng/mL (Peprotech, Rocky Hill, N.J., USA), interferon (IFN)-γ 10^3 U/mL, tumor necrosis factor (TNF)-a 50 ng/mL, and IFN-α 3·10^3 U/mL (all from Prospec, Inc., East Brunswick, N.J., USA). For the recovery assay, at the end of APAP incubation, cells were washed using HepaRG culture 0% DMSO medium and kept in the same medium for 3 more days.
as §1
(§3) Total RNA was extracted from cells using the ReliaPrep RNA Cell Miniprep System (Promega, Madison, Wis.). Reverse-transcription using the Revert Aid Kit (ThermoFisher Scientific, St. Leon-Rot, Germany) allowed conversion of RNA to cDNA. The RT reaction was performed at 25° C. for ten minutes followed by 30 minutes at 50° C. For quantitative real-time polymerase chain reaction (qPCR), GoTaq QPCR Master Mix with BRYTE green (Promega, Madison, Wis.) was used, subjected to qPCR in a 7500 real time PCR system and analysed using System SDS software v2.0.5 (Applied Biosystems), using GAPDH for normalisation.
In general terms: In qPCR the cycle at which signal appears reflects the starting amount.

For experiment [3], the system named is 3D HepaRG/HSC co-culture. Described as above. Format: cell-based, human. As to conditions: additional 3 days in culture upon APAP washout. As for the experimental part:
as §2, §1, §3

The test system of another experiment is 3D HSC mono-culture. The description is as above. In kind it is cell-based, human. As to conditions: 20 mM APAP, 24h, Assays 1-3.
Experiment [4] relates to 3D HepaRG mono-culture. Nature of the experiment: Pro-collagen measurement in culture supernatant (Type I C-Peptide). In kind it is cell-based, human. As to conditions: upon APAP incubation, 24 h. As for the experimental part:
(§4) Samples for pro-collagen measurement were five times concentrated using 10 kD Vivaspin 500 ultrafiltration columns (VWR, Radnor, Pa.), the resulting supernatant was analysed for the presence of Type I C-Peptide using the TAKARA (Chanteloup-en-Brie, France) kit.

For experiment [5], the system named is 3D HepaRG/HSC co-culture. Described as above. In kind it is cell-based, human. As to conditions: upon APAP incubation, 24 h. As for the experimental part:
as §4

The subject of experiment [6] is 3D HepaRG/HSC co-culture. The experiment can be described thus: Single and repeated exposure, cell viability (% ATP), serum-free medium. In kind it is cell-based, human. As to conditions: Homo sapiens, HepaRG, serum-free medium. As for the experimental part:
Culture medium. Day 0 cells were resuspended in HepaRG thawing medium and from day 1 to 21 cells were kept in the HepaRG culture medium 0% DMSO, until day 8. For the repeated versus single compound exposure assays, on day 8, the HepaRG culture medium 0% DMSO was replaced by the Serum-free HepaRG maintenance medium described in Klein et. al. 2013 (HepaRG Induction/Toxicity medium, DMSO 0.5% (v/v), 2 μg/ml of epidermal growth factor and 10 μg/ml of hepatocyte growth factor) and kept in this medium until the end of culture.
Single and repeated exposure. For the single and repeated compound exposure cell spheroids (3D HepaRG/HSC, 3D HepaRG and 3D HSC) were exposed respectively on day 20 for 24 h or every second day from day 8 to day 21 in serum-free medium with no additional solvent. Cells were exposed to a range of 8 concentrations between 0.5 and 80 mM for APAP single-dose, 0.125 and 40 mM for APAP repeated-dose, 0.3 and 500 μM Allyl Alcohol (AA, Sigma-Aldrich), 1.9 and 1000 μM Methotrexate (MTX, Pfizer, NY, USA). For the recovery assay, on day 21, cells were washed using serum-free medium and kept for 3 extra days.
Cell viability assay was performed by measuring ATP production upon individual spheroid exposure to the different concentrations of the test compound. Cell spheroids were lysed individually for viability analysis using the Cell titer Glo kit (Promega) following the instructions of the manufacturer. Luminescence values were converted into percentage of ATP by comparison with controls and converted into dose-response curves using Prism 5 software.

In the next experiment the test system is 3D HepaRG. As to conditions: read-out: APAP EC50 values (±stdev), cited from earlier work.

Several values for one entry are separate records, joined by “and”; a condition that tells them apart may be missing. Equal values may be shown once. Read-outs that look alike come from different tables or passages of the source.

A word on the EC50: it is the concentration needed to bring the measured effect to its halfway point. Consider `CC(=O)Nc1ccc(O)cc1` [APAP, Acetaminophen], for which the EC50 with 3D HepaRG/HSC co-culture [1] (144 h, Day 6/7) is 10 ± 1.09 mM; in the experiment on 3D HepaRG/HSC co-culture [1] (504 h, Day 21/22) it was 8 ± 4.17 mM; with 3D HepaRG/HSC co-culture [6] (repeated exposure, day 8 to day 21) it was 2.25 ± 0.35 mM; in the experiment with 3D HepaRG/HSC co-culture [6] (single exposure, 24 h on day 20) it was 10.4 ± 2.3 mM; in the experiment on 3D HepaRG (Day 6/7, Gunness et al. 2013, 2% DMSO), 2.7 ± 7.14 mM; with 3D HepaRG (Day 21/22, Gunness et al. 2013, 2% DMSO), 10.1 ± 9.9 mM. Further, the “Col1a1 mRNA fold increase” value in the experiment with 3D HepaRG mono-culture [2] is 4.80 +/− 4.83 fold and 3.01 +/− 0.06 fold. Further, the “aSMA mRNA fold increase” value in the experiment with 3D HepaRG mono-culture [2] is 0.69 +/− 0.09 fold and 1.06 +/− 0.13 fold. The “HSC activation markers after washout” value in the experiment with 3D HepaRG/HSC co-culture [3] is listed as “decrease of the HSC activation markers”. For the same compound, in the experiment on 3D HSC mono-culture, the “Loxl2 mRNA fold increase” value is 1.13 +/− 0.05 fold and 0.70 +/− 0.23 fold and 0.85 +/− 0.86 fold. In addition, the “collagen secretion (C-terminal pro-collagen in supernatant)” value is listed as “not observed” with 3D HepaRG mono-culture [4] and “significant increase of collagen secretion” in the experiment on 3D HepaRG/HSC co-culture [5].

(Values after US20170166870A1, “HUMAN HEPATIC 3D CO-CULTURE MODEL AND USES THEREOF” (Vrije Universiteit Brussel, priority 2014, published 2017).)
